Data published in US10047036B2, “Method for the synthesis of hydroxy-triglycerides and uses thereof for the prevention and treatment of diseases” (UNIVERSITAT DE LES ILLES BALEARS, priority 2014, dated 2018).

Columns and labels:
[1] = tested on: Drosophila melanogaster flies with human Alzheimer's genes (F1); assay: survival of Drosophila melanogaster with Alzheimer's disease; type: in vivo; settings: 100 μM in the food
Text: (§1) To investigate the effect of TGMs on the cognitive parameters and aging, another model of Alzheimer's disease in Drosophila melanogaster flies with genetic alterations corresponding to human Alzheimer's was used. The flies used were the first generation (F1) from the crossing of UAS-Aβ human-Tau 2N4R (stock 33771) flies with elav-GAL4^c155 (stock 8760) flies. This model which over-expresses the two proteins typical of Alzheimer's disease is complementary to the model described above and very convenient, as these animals have a life of approximately 1 month and it is possible to add the compounds to the food of the larvae to see the preventative effect thereof throughout their entire life. Also, it allows the effect on aging to be seen and on the life expectancy of these animals (survival over time).
(§2) In this sense, the flies with human Alzheimer's (F1) present a greater cognitive decline in comparison to the “Oregon” fly strain, which are the healthy controls. To evaluate the effect of the hydroxy-triglycerides of the invention, each one of the TGMs (100 μM) was added to the food consumed by these animals. It was possible to observe a positive effect of same in the geotaxis test of climbing (FIG. 7B and Table 11). In this test, the behavioural motor activity was investigated in 25 flies treated with vehicle or one of the TGMs. In this study, the flies were introduced in a glass cylinder with an opening closed with a sponge so air could enter. The flies were taken to the ground (bottom) of the pipe by giving it a sharp blow on a table and their behaviour was timed during 20 seconds. Once this time was over, the number of flies which had passed (crossed) a mark at 15 cm from the bottom was counted (geotaxis test). Usually, more than 90% of healthy young flies passed the line within 20 seconds. However, with aging or with Alzheimer's disease, the behavioural motor activity (percentage of flies which crossed the line) declined, compared to normal flies. In this context, the treatments with the hydroxy-triglycerides of the present invention avoided this cognitive decline associated to Alzheimer's, making the cognitive capacity of the diseased flies similar to that of the healthy flies. […] This positive effect on the cognitive parameters in flies was also shown by other TGMs (Table 11). In fact, in the control group with Alzheimer, no fly crossed the line as of 23 days of age. In this sense, the different hydroxy-triglycerides induced marked increases in the geotaxis test values, with increases in the cognitive values which reached up to 36 days, 50% more in the life of the flies with Alzheimer's (Table 11).

NCI1975D (lung) = assay: growth inhibition of human tumour cells, 72 h incubation; type: cell-based; settings: 72 hours of incubation
Procedure: (§3) On the one hand, human cells of different types of cancer were used. The cells were incubated at 37° C. and 5% of CO2 in air, in culture medium RPMI1640 or DMEM with bovine foetal serum (10%) and other supplements and in the presence or absence of the triglycerides of the present invention at different concentrations during 72 hours. It was possible to observe that the hydroxy-triglycerides of the invention have a high efficacy against the growth of human tumour cells, but not against the growth of normal non-tumour cells (human fibroblasts, MRC5).

HeLa (cervix) = assay: as above; type: cell-based; settings: 72 hours of incubation
Procedure: as §3

BXPC3 (pancreas) = assay: as above; type: cell-based; settings: 72 hours of incubation
Procedure: as §3

HT-29 (colon) = assay: as above; type: cell-based; settings: 72 hours of incubation
Procedure: as §3

MIA-PaCa-2 (pancreas) = assay: as above; type: cell-based; settings: 72 hours of incubation
Procedure: as §3

[2] = tested on: HL-60 (myeloblastic leukaemia); assay: as above; type: cell-based; settings: 72 hours of incubation
Procedure: as §3

SH-SY5Y (neuroblastoma) = assay: as above; type: cell-based; settings: 72 hours of incubation
Procedure: as §3

SF767 (glioma) = assay: as above; type: cell-based; settings: 72 hours of incubation
Procedure: as §3

MDA-MB231 (breast) = assay: as above; type: cell-based; settings: 72 hours of incubation
Procedure: as §3

PC3 (prostate) = assay: as above; type: cell-based; settings: 72 hours of incubation
Procedure: as §3

A549 (lung) = assay: as above; type: cell-based; settings: 72 hours of incubation
Procedure: as §3

[3] = tested on: Jurkat (lymphoblastic leukaemia); assay: as above; type: cell-based; settings: 72 hours of incubation
Procedure: as §3

HepG2 (liver carcinoma) = assay: as above; type: cell-based; settings: 72 hours of incubation
Procedure: as §3

U87M (glioma) = assay: as above; type: cell-based; settings: 72 hours of incubation
Procedure: as §3

[4] = tested on: Drosophila melanogaster flies with human Alzheimer's genes (F1); assay: geotaxis (climbing) test in Drosophila melanogaster with Alzheimer's disease; type: in vivo; settings: 100 μM in the food
Text: as §1, §2

systolic blood pressure = systolic blood pressure in spontaneously hypertensive rats; type: in vivo; settings: SHR rats
Text: Metabolic and cardiovascular pathologies are closely related. The overfeeding which characterises our society not only gives rise to problems of obesity and excess weight. It is also linked to the appearance of diabetes, dyslipidaemia, hypertension, strokes, arteriosclerosis, ictus, etc. All of these pathologies increase the risk of premature death and can even cause death. In this sense, certain natural oils show a certain efficacy against this type of pathologies, but their power is limited. In contrast, the molecules of the invention have an important effect against the development of this type of pathologies. To be able to study the effects of the compounds of the invention for the prevention and treatment of metabolic and cardiovascular pathologies, hypertensive rats were used (SHR strain, spontaneously hypertensive rats). These rats present obesity, high blood pressure, dyslipidaemia (hypercholesterolemia and hypertriglyceridemia), diabetes, metabolic syndrome and other related health problems. Hypertensive rats of the SHR strain (spontaneously hypertensive rats) with an approximate weight of 300 grams were treated with TGM1 during 9 days (400 mg/kg, every 12 h, p.o.). Systolic pressure was measured before starting the treatment (basal) and 9 days later. In these animals with a metabolic/cardiovascular pathology, this treatment with TGM1 produced drops in blood pressure of approximately 25 mmHg, while the 14-day treatments with 600 mg/kg of TGM1 induced even greater drops in systolic blood pressure of up to 37 mmHg for TGM1 and up to 52 mmHg for TGM6 (FIG. 4 and Table 3). […] [table]

In the case of CCC=CCC=CCC=CCC=CCC=CCC=CCC(O)C(=O)OCC(COC(=O)C(O)CC=CCC=CCC=CCC=CCC=CCC=CCC)OC(=O)C(O)CC=CCC=CCC=CCC=CCC=CCC=CCC (stereo not shown) [TGM6, 1,2,3-tri(2′-hydroxy-docosa-4′,7′,10′,13′,16′,19′-hexanoyl)glycerol], the “Survival: age at which all the animals in the group died” value [1] is reported as 39 days, the IC50 (NCI1975D (lung)) is reported as 21 µM and the IC50 (HeLa (cervix)) is reported as 12 µM. It also gave an IC50 (BXPC3 (pancreas)) of 18 µM, an IC50 (HT-29 (colon)) of 34 µM and an IC50 (MIA-PaCa-2 (pancreas)) of 29 µM. For the same compound, the IC50 [2] was 6 µM, the IC50 (SH-SY5Y (neuroblastoma)) was 7 µM and the IC50 (SF767 (glioma)) was 41 µM. It also gave an IC50 (MDA-MB231 (breast)) of 9 µM, an IC50 (PC3 (prostate)) of 5 µM and an IC50 (A549 (lung)) of 1000 nM. For the same compound, the IC50 [3] was 25 µM, the IC50 (HepG2 (liver carcinoma)) was 30 µM and the IC50 (U87M (glioma)) was 36 µM. The “cognitive parameters in the climbing test (FIG. 7B)” value ([4]; compared with normal flies) was “practically indistinguishable from that observed in normal flies”, the Geotaxis: age at which the animals showed a geotaxis of nil ([4]; no fly passes the line) was 28 days and the “drops in systolic blood pressure” value (systolic blood pressure; 14-day treatments with 600 mg/kg) was “up to 52 mmHg”. The “Δ SP, change in systolic blood pressure” value (systolic blood pressure; 14 days, 600 mg/kg every 12 hours, p.o., basal 216 mmHg) was −52 mmHg.
